Measurements reported in patent US10202347B2, “Compound, production method therefor, and use of said compound” (MICROBIAL CHEMISTRY RESEARCH FOUNDATION, priority 2013, dated 2019).
Read-outs that look alike come from different tables or passages of the source.

What was measured:
[1] = tested on: human stomach cancer cells MKN-74 cocultured with normal stromal cells derived from the human stomach, Hs738; assay: Cell proliferation test, coculture test with normal stromal cells Hs738 (GFP fluorescence); type: cell-based
Protocol: Human stomach cancer cells MKN-74 (Riken Cell Bank) were cultured at 37° C. and 5% CO2 in DMEM supplemented with 10% FBS (product of GIBCO Co.), 100 units/mL penicillin G (product of Invitrogen Co.), and 100 μg/mL streptomycin (product of Invitrogen Co.).
The above cancer cells were allowed to undergo gene transfer of Green fluorescence protein (GFP) expression vector, pEGFP-C1 (product of BD Biosciences Co.) using the Lipofectamine reagent (product of Invitrogen Co.), to thereby clone cells stably expressing GFP.
Normal stromal cells derived from the human stomach, Hs738 ((CRL-7869), ATCC) were cultured at 37° C. and 5% CO2 in DMEM supplemented with 10% FBS, 100 units/mL penicillin G (product of Invitrogen Co.), 100 μg/mL streptomycin (product of Invitrogen Co.), 5 μg/mL insulin, 5 μg/mL transferrin (product of Wako Pure Chemical Industries Co.), 1.4 μM hydrocortisone (product of Sigma Co.), and […] basic-FGF (product of Pepro Tech Co.).
The above normal stromal cells derived from the human stomach, Hs738 were dispersed at 5×10^4 cells/mL in DMEM containing 1% dialyzed serum, 5 μg/mL insulin, 5 μg/mL transferrine (product of Wako Pure Chemical Industries Co.), and 1.4 μM hydrocortisone (product of Sigma Co.), and were placed in a 96-well plate at 0.1 mL/well. Respective evaluation samples (the compounds expressed by Structural Formulas (1) to (13)) were added thereto at respective concentrations, followed by culturing at 37° C. and 5% CO2 for 2 days.
Next, the above human stomach cancer cells MKN-74 were dispersed in DMEM at 5×10^5 cells/mL, and were placed at 10 μL/well in the plate in which the above normal stromal cells derived from the human stomach, Hs738 had been cultured, followed by further coculturing at 37° C. and 5% CO2 for 3 days.
Measurement of cell proliferation rates in the above coculture test and monoculture test was performed in the following manner.
The medium was removed from the wells of the above plate, and a cytolysis liquid (10 mM Tris-HCl [pH 7.4], 150 mM NaCl, 0.9 mM CaCl2, and 1% Triton X-100) was added thereto at 0.1 mL/well to lyse the cells. The fluorescence intensity of GFP was measured at an excitation wavelength of 485 nm and a fluorescence wavelength of 538 nm, and the cell proliferation rates were calculated from the following formula. Cell proliferation rate (%)=(Fluorescence intensity in the presence of the evaluation sample/Fluorescence intensity in the absence of the evaluation sample)×100

[2] = tested on: Haemophilus influenza T-196 strain; assay: Measurement of MIC for Haemophilus influenza T-196; type: cell-based; conditions: read-out: MIC Haemophilus influenzae T-196
Protocol: Each of the above compounds was measured for minimum inhibitory concentration (MIC) for Haemophilus influenza.
Haemophilus influenza T-196 strain and H. influenza ARD476 strain each were statically cultured in a HI medium (Muller Hinton medium (product of Becton, Dickinson Co.) supplemented with 5% Fildes enrichment (product of Becton, Dickinson Co.)) at 37° C. overnight under aerobic conditions containing 5% carbon dioxide gas.
After completion of the culturing, the culture was suspended with the HI medium and diluted so that each Haemophilus influenza strain was 2×10^6 CFU/mL to 9×10^6 CFU/mL.
Each of the test samples (each of the above compounds, clarithromycin, and ampicillin) was prepared with the HI medium to have a concentration of 256 mg/L. From this concentration, the test sample was 2-fold diluted serially in 11 steps to 0.125 mg/L.
The above-diluted culture was added at 50 μL/well to 50 μL/well of the HI medium containing each of the test samples at the above concentrations, and was statically cultured for 18 hours at 37° C. under aerobic conditions containing 5% carbon dioxide gas.
After completion of the culturing, the presence or absence of proliferation of each bacterium was visually determined based on turbidity, and the MIC for each bacterial strain was obtained.

[3] = Acute toxicity test (maximum tolerated dose); conditions: female, ICR, mouse, in vivo, iv
From the text: ICR mice (female, 4 weeks old, product of Charles River Co.) were bred under the SPF conditions.
One half of the administration dose at which the mice were recognized to be dead or have serious toxicity for the observation period of 2 weeks was defined as the maximum tolerated dose (MTD) in the present experiment.

[4] = tested on: H. pylori JCM12095 strain; assay: Measurement of MIC for H. pylori JCM12095; type: cell-based; conditions: Helicobacter pylori, read-out: MIC H. pylori JCM 12095
Protocol: (§1) Each of the above compounds was measured for minimum inhibitory concentration (MIC) for Helicobacter pylori.
(§2) Helicobacter pylori JCM12093 strain and H. pylori JCM12095 strain each were statically cultured in a HP medium (brain heart infusion broth (product of Becton, Dickinson Co.) supplemented with 10% fetal bovine serum (product of Life Technologies Co.)) for 144 hours at 37° C. under microaerobic culture conditions (microaerobic conditions (N2:O2:CO2=85:5:10)).
(§3) After completion of the culturing, the culture was suspended with the HP medium and diluted so that Helicobacter pylori was 2×10^6 CFU/mL to 9×10^6 CFU/mL.
(§4) Each of the test samples (each of the above compounds, clarithromycin, and ampicillin) was prepared with the HP medium to have a concentration of 256 mg/L. From this concentration, the test sample was 2-fold diluted serially in 15 steps to 0.0078 mg/L.
(§5) The above-diluted culture was added at 50 μL/well to 50 μL/well of the HP medium containing each of the test samples at the above concentrations, and was statically cultured for 144 hours at 37° C. under microaerobic culture conditions (microaerobic conditions (N2:O2:CO2=85:5:10)). After completion of the culturing, the presence or absence of proliferation of each bacterium was visually determined based on turbidity, and the MIC for each bacterial strain was obtained.

[5] = tested on: Helicobacter pylori JCM12093 strain; assay: Measurement of MIC for Helicobacter pylori JCM12093; type: cell-based; conditions: for MIC: Helicobacter pylori, read-out: MIC Helicobacter pylori JCM 12093; for anti-Helicobacter pylori activity (in words): summary of Table 3, H. pylori JCM12093 and JCM12095 strains
Protocol: as §1, §2, §3, §4, §5

[6] = HI medium, 18 hours, 37° C., 5% carbon dioxide
[7] = intravenous administration, ICR mice, observed for 2 weeks, one half of the dose with death or serious toxicity, read-out: MTD
[8] = coculture test, MKN-74 with stromal cells Hs738, cell proliferation rate, average of duplicate, read-out: Cocul IC50
[9] = JCM12095, HP medium, 144 hours, 37° C., microaerobic
[10] = JCM12093, HP medium, 144 hours, 37° C., microaerobic

Structure (SMILES) | IC50 ([1]; MKN-74, read-out: Cocul IC50) | MIC [2, 6] | MTD at 2 weeks [3, 7] | MIC ([4]; JCM12095, 144 h) | MIC ([5]; JCM12093, 144 h) | IC50 [1, 8] | MTD at 2 weeks ([3]; MTD) | MIC [4, 9] | MIC [5, 10] | anti-Helicobacter pylori activity (in words) [5] | MIC ([2]; 18 h)
CCCCCCCc1c(C)c(=O)c2ccccc2n1CN=C(SC)SC [Structural Formula (13)] | 0.78 µg/mL | > 128 µg/mL | ≥ 50 mg/kg | 2 µg/mL | 2 µg/mL |  |  |  |  |  | 
CCCCCCCCc1c(C)c(=O)c2ccccc2n1CC(=O)OC [Structural Formula (5)] |  | > 128 µg/mL |  |  |  | 0.53 µg/mL | 6.25 mg/kg | 2 µg/mL | 2 µg/mL |  | 
CCCCCCCc1c(C)c(=O)c2ccccc2n1CNC(=S)SC [Structural Formula (12)] | 2.91 µg/mL | > 128 µg/mL | ≥ 50 mg/kg | 0.06 µg/mL | 0.03 µg/mL |  |  |  |  | exhibited anti-Helicobacter pylori activity at low concentrations | 
CCCCCCCCc1c(C)c(=O)c2ccccc2n1CC(=O)O [Structural Formula (6)] |  | 128 µg/mL |  |  |  | 4.15 µg/mL | ≥ 50 mg/kg | 0.25 µg/mL | 1 µg/mL |  | 
CCCCCCCc1c(C)c(=O)c2ccccc2n1CN=C=S [Structural Formula (11)] |  |  | 6.25 mg/kg |  |  | 0.12 µg/mL |  | 0.016 µg/mL | 0.016 µg/mL | exhibited anti-Helicobacter pylori activity at low concentrations | > 128 µg/mL
Cc1c(CC(C)C)[nH]c2ccccc2c1=O [Structural Formula (4)] |  | 64 µg/mL |  |  |  | 1.32 µg/mL | 25 mg/kg | 0.25 µg/mL | 0.5 µg/mL |  | 
CCCCCCCCc1nc2ccccc2c(OCC(=O)O)c1C [Structural Formula (2)] |  | 64 µg/mL |  |  |  | 0.37 µg/mL | ≥ 50 mg/kg | 0.5 µg/mL | 1 µg/mL |  | 
Cc1c(CCCC/C=C/C(C)C)[nH]c2ccccc2c1=O [Structural Formula (3)] |  | > 128 µg/mL | 1.56 mg/kg |  |  | 0.012 µg/mL |  | 0.016 µg/mL | 0.008 µg/mL | exhibited anti-Helicobacter pylori activity at low concentrations | 
